Data taken from patent publication US20240299542A1, “NATURAL KILLER CELLS ENGINEERED TO REDUCE OR ELIMINATE CBL-B AND USES THEREOF” (City of Hope, priority 2021, published 2024).

Columns and labels:
IFN-γ = assay: Intracellular IFN-γ flow cytometry of NK cells pretreated with Mertk inhibitors; type: cell-based, human; settings: for percentage of intracellular IFN-γ+ cells: 5 uM, 90 min pretreatment, then IL-15 (10 ng/ml) 24 h; for IFN-γ level lower than control with no inhibitor: in the presence of IL-15
Method: (§1) FIGS. 5A-5D depict the results of a study showing that Cbl-b interacts with and regulates phosphorylation of Mertk in primary human NK cells. (FIG. 5A) Representative intracellular flow cytometric analysis of the TAM family receptors expression in primary human NK cells. Summarized data are shown from 6 donors. IgG1 is the isotype for Tyro3 and Axl, while IgG2 for Mertk. (FIG. 5B) The level of Mertk phosphorylation and Cbl-b in Cbl-b siRNA- or Scr siRNA-transduced primary human NK was measured by immunoblot analysis. Data presented are representative of five independent experiments. […] Data presented are representative of 4 donors performed in a similar fashion and are summarized in the panel below the representative flow dot plots. (FIG. 5D) Primary NK cells were pretreated with the Mertk inhibitors UNC2550 or UNC2881 (5 uM) for 90 min prior to 30 min activation by IL-15 (10 ng/ml). Data presented are representative of 4 donors performed in a similar fashion. Scr-scrambled; *P<0.05; ns, not significant. Data presented as mean±SEM.
Flow cytometry. To determine protein cell surface expression via flow cytometry, cells were stained with monoclonal antibodies at room temperature for 20 minutes and washed with FACS buffer prior to analysis using a Fortessa X-20 flow cytometer (BD Biosciences). For IFN-γ intracellular flow cytometric analysis, […] GolgiPlug (BD Biosciences) was added for 4 h before cell harvest; cells were then permeabilized and fixed using a Cytofix/Cytoperm Fixation/Permeabilization Solution Kit (BD Biosciences), followed by analysis with a Fortessa X-20 flow cytometer. Intracellular flow cytometric analysis of Mertk was performed similarly except that GolgiPlug was not added. Data was analyzed by using Flowjo V10 software (Tree Star, Ashland, OR, USA).
The TAM receptor family consists of Tyro3, Axl and Mertk, all of which are expressed in mature mouse NK cells (25) and are molecular substrates for Cbl-b ubiquitylation both in vitro and in vivo (17). To investigate the possible relationship between Cbl-b and the TAM receptor family in primary human NK cells, we detected the expression of the three TAM receptor members in NK cells. […] However, the level of total mertk is low in human NK cells (FIG. 10B), preventing us to characterize the mechanism associated with the p-Mertk regulation by Cbl-b. Next, primary human NK cells were pretreated with or without Mertk inhibitors (UNC2550 or UNC2881), followed by IL-15 stimulation.

p-STAT5 = p-STAT5 by immunoblot in IL-15-activated NK cells pretreated with Mertk inhibitors; type: cell-based, human; settings: 5 uM, 90 min pretreatment, then IL-15 (10 ng/ml) 30 min, vs no inhibitor
Method: as §1, with “(FIG. 5D) Primary NK cells were pretreated with the Mertk inhibitors UNC2550 or UNC2881 (5 uM) for 90 min prior to 30 min activation by IL-15 (10 ng/ml). Data presented are representative of 4 donors performed in a similar fashion. Scr-scrambled; *P<0.05; ns, not significant. Data presented as mean±SEM.” left out
Immunoblotting. […] Densitometric analysis was performed to quantify intensity of gel bands with Image J (National Institutes of Health).
The TAM receptor family consists of Tyro3, Axl and Mertk, all of which are expressed in mature mouse NK cells (25) and are molecular substrates for Cbl-b ubiquitylation both in vitro and in vivo (17). To investigate the possible relationship between Cbl-b and the TAM receptor family in primary human NK cells, we detected the expression of the three TAM receptor members in NK cells. […]

Cbl-b [1] = assay: Cbl-b protein by immunoblot after JAK or AKT inhibitor pretreatment and IL-15/IL-2 activation of primary NK cells; type: cell-based, human
Method: FIGS. 2A-2E depict the results of a study showing that JAK-STAT and AKT pathways mediate upregulation of Cbl-b in NK cells. (FIG. 2A) Primary human NK cells were pretreated with the JAK3 inhibitor CP-690550 and the JAK1/2 inhibitor AZD1480 at various concentrations for 90 min prior to a 24 h activation by IL15 (10 ng/ml). NK cells were then harvested for quantification of Cbl-b protein expression by immunoblot analysis. Data are representative of 6 donors performed in a similar fashion. Densitometric quantification assessing the ratio of the Cbl-b protein to β-actin protein levels for 6 donors is summarized in (FIG. 2B) and (FIG. 2C). […] Data are representative of 5 donors performed in a similar fashion. Densitometric quantification assessing the ratio of the Cbl-b protein levels to β-actin protein levels for 5 donors is summarized in (FIG. 2E). *P<0.05, **P<0.01, ***P<0.001 by One-way ANOVA or Student's two-tailed paired t-test. Data are presented as mean±SEM.
(§2) Immunoblotting. Cells were harvested and suspended in RIPA lysis buffer (Thermo Fisher Scientific) on ice for 20 minutes. Equal amount of protein was resolved by 5-15% Criterion TGX gel (Bio-Rad) and then transferred onto a Nitrocellulose (NC) or PVDF membrane (Thermo Fisher Scientific). The membrane was incubated with a primary antibody at 4° C. overnight and an IRDye secondary antibody (Li-COR Biosciences) for 1 hour at room temperature. The immunoblots were visualized with Odyssey CLx Imager (Li-COR Biosciences). Densitometric analysis was performed to quantify intensity of gel bands with Image J (National Institutes of Health).
(§3) Since IL-15 utilizes select JAK-STAT proteins to initiate cellular activation, we pretreated primary NK cells with the JAK3 inhibitor CP-690550 (22) or the JAK1/2 inhibitor AZD1480 (23) in increasing concentrations prior to IL-15 stimulation then Cbl-b expression level was evaluated. […] As K562 cells were also able to induce expression of Cbl-b in primary human NK cells (FIG. 1B), we repeated the inhibitor experiments under the K562 cell stimulation.

Cbl-b [2] = assay: Cbl-b protein by immunoblot after inhibitor pretreatment and K562 co-culture of primary NK cells; type: cell-based, human; settings: 10 uM, 90 min pretreatment, 24 h co-culture with K562 (E/T=10:1), vs vehicle control
Method: FIG. 7A Primary NK cells were pretreated with AZD1480 (10 uM), CP-690550 (10 uM) or Afuresertib (10 uM) for 90 min prior to a 24 h cocultured with K562 cells (E/T=10:1). The immunoblot data are representative of 3 donors in a similar fashion. Densitometric quantification assessing the ratio of Cbl-b protein levels to β-actin protein levels for 3 donors is summarized in FIG. 7B. *P<0.05, **P<0.01; ns, not significant. Data are presented as mean±SEM.
as §2, §3

Cbl-b [3] = assay: Cbl-b protein by immunoblot after stimulation of primary human NK cells with cytokines or activating antibody; type: cell-based
Method: (FIG. 1B) Enriched primary human NK cells were co-cultured with the K562 myeloid leukemia cell line (E/T ratio=10:1) for 24 h followed by immunoblot analysis. Summary data are from three independent experiments. (FIG. 1C) Primary human NK cells were treated with different concentrations of IL-15 for 24 h followed by immunoblot analysis (n=5 donors). (FIG. 1D) Equal numbers of purified CD56^+ human NK cells, CD56^bright NK cells and CD56^dim NK cells were sorted from peripheral blood mononuclear cells isolated by Ficoll, cultured and stimulated with IL-15 (20 ng/ml for 24 h) followed by immunoblot analysis. The data are representative of three independent experiments. Med, medium only; *P<0.05, **P<0.01 by two-tailed unpaired t-test or One-way ANOVA; ns, not significant. Data are presented as mean±SEM.
FIG. 6A Enriched primary human NK cells were cocultured with Molm-13 or MV4-11 leukemia cell lines (E/T ratio=10:1) for 24 h prior to assessment of Cbl-b by immunoblot analysis. […] FIG. 6B Enriched primary human NK cells were cultured overnight with an anti-NKG2D activating antibody (clone 1D11) (10 μg/ml) or mouse IgG (10 μg/ml) as control prior to assessment of Cbl-b by immunoblot analysis. […] Data are shown summarizes four independent experiments. […] Data are shown summarizes five independent experiments. FIG. 6E The expression of Cbl-b was assessed by qRT-PCR after primary human NK cells were incubated with K562 cells (E/T ratio=10:1) for 24 h. Data are shown summarizes five independent experiments. *P<0.05, **P<0.01, compared to the shortest time point. Data are presented as mean±SEM.
as §2
We assessed the expression of Cbl-b protein in primary human NK cells enriched from the blood of healthy donors in response to 24-hour stimulation by different cytokines. […] Since certain tumor cells can trigger NK cell activation, we co-cultured NK cells for 24 h with different tumor cell lines in order to assess this effect on the expression of Cbl-b.

Cbl-b [4] = assay: Cbl-b mRNA by qRT-PCR after IL-15 or IL-2 treatment of primary human NK cells; type: cell-based; settings: IL-15 (10 ng/ml) or IL-2 (150 IU/ml)

Row | Compound | percentage of intracellular IFN-γ+ cells (IFN-γ) | IFN-γ level lower than control with no inhibitor (IFN-γ) | level of p-STAT5 (p-STAT5) | Cbl-b expression after inhibitor pretreatment under K562 stimulation (Cbl-b [2]) | also measured
1 | CCCCNc1ncc(C(=O)NCc2ccc(-n3ccnc3)cc2)c(NC2CCC(O)CC2)n1 (centres unmarked) [UNC2881] | 5.49% | approximately 3 fold | decreased |  | 
2 | UNC2550 | 5.49% | approximately 3 fold | decreased |  | 
3 | Cn1ncc(Cl)c1-c1cc(C(=O)N[C@H](CN)Cc2cccc(F)c2)sc1Cl [Afuresertib] |  |  |  | significant downregulation | expression of Cbl-b protein after inhibitor pretreatment (Cbl-b [1]; 10 uM, 90 min pretreatment, then IL-15 (10 ng/ml) or IL-2 (150 IU/ml) 24 h): nearly identical results
4 | IL-15: Recombinant human IL-15 protein obtained from National Institutes of Health |  |  |  |  | dose response of Cbl-b protein (Cbl-b [3]; different concentrations of IL-15, 24 h): did not find evidence of a dose response change; expression of Cbl-b protein (ratio to β-actin) (Cbl-b [3]; primary human NK cells, 24 h cytokine stimulation, compared to resting NK cells without cytokines): induced an increase in the expression of Cbl-b; upregulation of Cbl-b mRNA at 24 h post stimulation (Cbl-b [4]; 24 h): sustained; time of peak Cbl-b mRNA (Cbl-b [4]; compared to unstimulated NK cells): 4 h
5 | C[C@@H]1CCN(C(=O)CC#N)C[C@@H]1N(C)c1ncnc2[nH]ccc12 [CP-690550] |  |  |  | only the AKT1/2/3 inhibitor Afuresertib rather than either of the two JAK inhibitors | expression of Cbl-b protein after inhibitor pretreatment (Cbl-b [1]; 90 min pretreatment at various concentrations, then IL-15 (10 ng/ml) 24 h, vs vehicle control): significant decrease
